# Experimental data published in patent US20240342157A1, “BAK ACTIVATORS, PHARMACEUTICAL COMPOSITIONS, AND USES IN TREATING CANCER” (Emory University, priority 2021, published 2024).
# Columns and labels:
# [1] = test system: Bak−/− and DKO A549 cells; assay: apoptotic cell death in Bak knockout cells; type: cell-based, human
# Description: Bak is a pro-apoptotic protein required for programmed cell death and apoptosis induction in cancer cells. […] Experiments indicate that BKA-073 directly binds to Bak protein and induces Bak oligomerization in mitochondria leading to activation of a proapoptotic function. Experiments indicate that BKA-073-induced Bak oligomerization promotes mitochondrial priming and Cyt c release, which are early changes in net pro-apoptotic signaling at the mitochondria. BKA-073-induced mitochondrial priming and Cyt c release leads to apoptotic cell death of lung cancer cells.
# Several Bax/Bak-independent mechanisms of apoptotic cell death have been described. […] It is contemplated that, in addition to the major Bak-dependent apoptosis mechanism, BKA-073 induces a small proportion of apoptotic cell death (about 20%) through Bax/Bak-independent mechanism(s).
# [2] = test system: KRAS G12D LKB1fl/fl (KL) mice; assay: mutant KRAS-driven lung cancer GEMM; type: in vivo; settings: 15 mg/kg/d i.p., control 4 of 6, p<0.01
# Description: After administration of adenovirus Cre recombinase in KRAS G12D LKB1fl/fl (KL) mice for 6 weeks, KL mice were treated with KRA-073 (15 mg/kg/d) i.p. for 48 days (n=6 mice/group). Survival of mice is shown for up to 48 days before euthanization in the control group versus the BKA-073 treatment group.
# To assess the potency of BKA-073 in KRAS mutant driven lung cancer, lox-stop-lox (LSL)-KRAS G12D LKB1fl/fl (i.e. KL) mice were generated and bred. These mice contain a KRAS G12D LSL knock-in allele and a floxed allele of LKB1 (LKB1fl/fl). Primary lung adenocarcinoma was detectable as early as 6 weeks after intranasal administration of 5×10^6 pfu adenovirus expressing Cre recombinase (AdeCre) in KRAS G12D LKB1fl/fl (KL) mice.
# To further assess the potential of BKA-073 as therapy for mutant KRAS-driven lung cancer, BKA-073 (15 mg/kg/d) or vehicle was administered to KL mice i.p. starting at 6 weeks post AdeCre delivery. […] To quantify tumor burden and tumor multiplicity in mice, H&E-stained lungs were imaged with morphometric software to quantify the surface area composed of tumor as opposed to normal tissue compared with the control group. There were 4 deaths out of 6 mice in the control group versus 2 deaths out of 6 mice in the BKA-073 treatment group (p<0.01), calculated up to 48 days before euthanization (FIG. 5).
# [3] = test system: A549 lung cancer xenografts; assay: A549 lung cancer xenografts; type: in vivo
# Description: Nu/Nu mice bearing A549 lung cancer xenografts were treated with increasing doses of BKA-073 (5 to 15 mg/kg/d) i.p. for 28 days. Tumor volume was measured once every 2 days. After treatment, mice were sacrificed, and tumors were removed and analyzed.
# To test the potency of BKA-073 in vivo, mice carrying lung cancer xenografts derived from A549 cells were treated i.p. with increasing doses (0, 5, 10, 15 mg/kg/d) of BKA-073 for 28 days. […] To assess whether BKA-073 induced suppression of tumor growth occurs through activation of Bak and apoptosis in vivo, representative samples from harvested tumor tissues were analyzed by cross-linking with BMH for Bak oligomerization or by immunohistochemistry (IHC) for active caspase 3. […] Doses between 5 mg/kg and 15 mg/kg provide an optimal therapeutic index for BKA-073 for in vivo experimentation involving lung cancer xenografts.
smiles,measurement,setting,value
"COc1ccc2nc3ccccc3c(NCCNCC(C)O)c2c1 (stereo not shown) [BKA-073, 1-((2-((2-methoxyacridin-9-yl)amino)ethyl)amino)propan-2-ol]",apoptotic cell death,[1],about 20%
same,deaths up to 48 days,[2],2 deaths out of 6 mice
same,tolerability,[3]; 5 to 15 mg/kg/d,well tolerated without significant toxicity
same,weight loss and organ toxicities,[3]; dose range between 5 and 15 mg/kg/day,without weight loss or significant organ toxicities
